Source: ChEMBL document CHEMBL5465560, “Selectivity Literature for EUbOPEN Chemogenomic Library” (2024)

How the values were obtained:
[1] = molecular target: T1, Dual specificity protein kinase TTK (Homo sapiens) (UniProt P33981); experiment: Selectivity interaction (Kinase panel (DSF assay)) EUB0001559a TTK
T1 sequence (whole entry): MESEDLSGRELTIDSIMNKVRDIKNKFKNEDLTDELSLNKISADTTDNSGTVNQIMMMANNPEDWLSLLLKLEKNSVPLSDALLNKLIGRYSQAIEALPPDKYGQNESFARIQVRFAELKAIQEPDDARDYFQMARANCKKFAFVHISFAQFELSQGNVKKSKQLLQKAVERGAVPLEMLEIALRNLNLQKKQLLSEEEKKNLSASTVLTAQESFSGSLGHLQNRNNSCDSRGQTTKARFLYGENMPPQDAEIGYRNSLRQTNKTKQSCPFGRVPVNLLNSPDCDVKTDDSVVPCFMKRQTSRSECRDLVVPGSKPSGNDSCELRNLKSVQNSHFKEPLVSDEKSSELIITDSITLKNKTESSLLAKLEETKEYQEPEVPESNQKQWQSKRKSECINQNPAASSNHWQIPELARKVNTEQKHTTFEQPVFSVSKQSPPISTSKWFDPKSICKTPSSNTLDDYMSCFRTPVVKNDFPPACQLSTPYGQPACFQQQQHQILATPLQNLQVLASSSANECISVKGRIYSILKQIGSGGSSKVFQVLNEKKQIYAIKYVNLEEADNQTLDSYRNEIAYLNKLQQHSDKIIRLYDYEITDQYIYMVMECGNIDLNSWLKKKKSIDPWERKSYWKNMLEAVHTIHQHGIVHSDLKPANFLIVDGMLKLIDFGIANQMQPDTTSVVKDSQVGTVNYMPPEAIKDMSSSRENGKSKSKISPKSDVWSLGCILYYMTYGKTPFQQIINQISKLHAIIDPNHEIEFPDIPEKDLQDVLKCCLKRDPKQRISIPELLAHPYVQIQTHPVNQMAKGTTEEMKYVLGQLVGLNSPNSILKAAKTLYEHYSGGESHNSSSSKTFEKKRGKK

[2] = molecular target: Cyclin-dependent kinase 2 (Homo sapiens, UniProt P24941); experiment: Selectivity interaction (KinomeScan (DiscoverX)) EUB0001079a CDK2; conditions: at 1 µM
[3] = molecular target: T2, Serine/threonine-protein kinase LATS1 (Homo sapiens) (UniProt O95835); experiment: Selectivity interaction (KinomeScan (DiscoverX)) EUB0001079a LATS1; conditions: at 1 µM
T2 sequence (whole entry): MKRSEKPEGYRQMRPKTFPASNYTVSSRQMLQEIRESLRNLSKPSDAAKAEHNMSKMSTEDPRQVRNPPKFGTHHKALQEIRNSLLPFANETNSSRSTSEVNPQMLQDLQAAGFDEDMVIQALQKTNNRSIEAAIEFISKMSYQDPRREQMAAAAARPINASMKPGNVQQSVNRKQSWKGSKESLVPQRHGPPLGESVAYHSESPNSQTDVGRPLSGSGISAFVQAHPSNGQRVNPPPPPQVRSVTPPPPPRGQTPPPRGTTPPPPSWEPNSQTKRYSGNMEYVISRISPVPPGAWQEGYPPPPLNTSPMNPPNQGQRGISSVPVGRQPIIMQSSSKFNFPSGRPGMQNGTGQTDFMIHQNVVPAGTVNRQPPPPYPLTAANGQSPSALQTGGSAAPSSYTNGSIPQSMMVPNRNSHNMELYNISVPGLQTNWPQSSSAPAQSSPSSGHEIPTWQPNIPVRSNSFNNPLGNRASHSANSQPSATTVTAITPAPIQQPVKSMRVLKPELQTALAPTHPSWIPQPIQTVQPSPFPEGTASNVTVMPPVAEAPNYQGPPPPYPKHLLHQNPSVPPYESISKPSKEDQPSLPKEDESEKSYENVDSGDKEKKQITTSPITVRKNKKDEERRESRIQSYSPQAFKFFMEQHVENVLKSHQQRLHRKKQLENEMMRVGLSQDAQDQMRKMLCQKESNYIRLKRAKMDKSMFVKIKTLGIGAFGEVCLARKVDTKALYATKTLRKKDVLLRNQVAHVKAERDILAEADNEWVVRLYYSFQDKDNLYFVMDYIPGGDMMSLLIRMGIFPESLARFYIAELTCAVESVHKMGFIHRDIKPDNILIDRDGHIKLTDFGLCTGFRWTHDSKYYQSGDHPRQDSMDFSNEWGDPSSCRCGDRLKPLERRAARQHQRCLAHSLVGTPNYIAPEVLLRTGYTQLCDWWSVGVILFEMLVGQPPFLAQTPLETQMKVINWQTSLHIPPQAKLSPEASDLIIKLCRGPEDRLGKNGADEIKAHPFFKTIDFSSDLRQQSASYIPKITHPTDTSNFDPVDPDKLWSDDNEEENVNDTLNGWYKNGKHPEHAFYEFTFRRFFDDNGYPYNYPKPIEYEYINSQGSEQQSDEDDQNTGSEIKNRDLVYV

[4] = molecular target: T3, MAP kinase-activated protein kinase 5 (Homo sapiens) (UniProt Q8IW41); experiment: Selectivity interaction (KinomeScan (DiscoverX)) EUB0000666a MAPKAPK5; conditions: at 10 µM
T3 sequence (whole entry): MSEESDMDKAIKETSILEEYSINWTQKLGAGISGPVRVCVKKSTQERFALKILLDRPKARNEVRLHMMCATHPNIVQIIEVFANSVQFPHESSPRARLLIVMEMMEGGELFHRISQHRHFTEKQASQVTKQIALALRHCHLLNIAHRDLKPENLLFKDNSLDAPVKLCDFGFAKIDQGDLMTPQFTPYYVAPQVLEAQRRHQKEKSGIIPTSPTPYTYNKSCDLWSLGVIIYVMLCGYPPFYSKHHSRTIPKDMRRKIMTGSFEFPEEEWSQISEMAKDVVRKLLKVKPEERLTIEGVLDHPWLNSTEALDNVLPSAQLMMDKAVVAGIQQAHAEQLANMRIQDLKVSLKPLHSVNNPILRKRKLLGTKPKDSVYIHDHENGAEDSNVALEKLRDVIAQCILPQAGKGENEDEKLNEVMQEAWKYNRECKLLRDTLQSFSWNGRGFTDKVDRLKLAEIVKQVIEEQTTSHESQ

[5] = molecular target: Mitogen-activated protein kinase 7 (Homo sapiens) (UniProt Q13164); experiment: Selectivity interaction (Rxn Biology Kinase assay) EUB0001632a MAPK7; conditions: at 10 µM
Mitogen-activated protein kinase 7 (Homo sapiens), sequence (Q13164 2-816 limits assumed): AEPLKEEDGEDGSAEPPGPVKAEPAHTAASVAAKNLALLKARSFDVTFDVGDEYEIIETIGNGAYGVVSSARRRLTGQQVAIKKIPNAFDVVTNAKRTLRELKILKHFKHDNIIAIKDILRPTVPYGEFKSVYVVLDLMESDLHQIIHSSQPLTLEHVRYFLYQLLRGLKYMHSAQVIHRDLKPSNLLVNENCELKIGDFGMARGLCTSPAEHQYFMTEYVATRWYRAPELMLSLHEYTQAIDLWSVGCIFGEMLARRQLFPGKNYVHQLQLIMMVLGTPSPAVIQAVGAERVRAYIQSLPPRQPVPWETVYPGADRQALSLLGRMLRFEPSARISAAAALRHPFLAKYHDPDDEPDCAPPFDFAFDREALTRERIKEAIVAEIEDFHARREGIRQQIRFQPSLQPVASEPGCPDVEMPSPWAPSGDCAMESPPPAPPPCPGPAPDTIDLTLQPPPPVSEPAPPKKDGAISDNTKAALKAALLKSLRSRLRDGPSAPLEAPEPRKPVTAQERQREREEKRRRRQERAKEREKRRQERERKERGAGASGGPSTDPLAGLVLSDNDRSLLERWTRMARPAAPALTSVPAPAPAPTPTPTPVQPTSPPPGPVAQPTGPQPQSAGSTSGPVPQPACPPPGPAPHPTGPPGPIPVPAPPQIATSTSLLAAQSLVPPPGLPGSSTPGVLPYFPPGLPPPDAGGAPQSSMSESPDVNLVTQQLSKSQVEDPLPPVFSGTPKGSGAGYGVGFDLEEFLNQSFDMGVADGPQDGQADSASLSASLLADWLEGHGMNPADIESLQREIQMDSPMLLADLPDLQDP

[6] = molecular target: Histone-lysine N-methyltransferase ASH1L (Homo sapiens) (UniProt Q9NR48); experiment: Selectivity interaction (Bromodomain panel (DSF asssay)) EUB0000270b ASH1L
[7] = molecular target: Casein kinase I isoform gamma-3 (Homo sapiens) (UniProt Q9Y6M4); experiment: Selectivity interaction (KinomeScan (DiscoverX)) EUB0000595a CSNK1G3; conditions: at 10 µM
Casein kinase I isoform gamma-3 (Homo sapiens), sequence (Q9Y6M4 whole entry, looked up, canonical isoform): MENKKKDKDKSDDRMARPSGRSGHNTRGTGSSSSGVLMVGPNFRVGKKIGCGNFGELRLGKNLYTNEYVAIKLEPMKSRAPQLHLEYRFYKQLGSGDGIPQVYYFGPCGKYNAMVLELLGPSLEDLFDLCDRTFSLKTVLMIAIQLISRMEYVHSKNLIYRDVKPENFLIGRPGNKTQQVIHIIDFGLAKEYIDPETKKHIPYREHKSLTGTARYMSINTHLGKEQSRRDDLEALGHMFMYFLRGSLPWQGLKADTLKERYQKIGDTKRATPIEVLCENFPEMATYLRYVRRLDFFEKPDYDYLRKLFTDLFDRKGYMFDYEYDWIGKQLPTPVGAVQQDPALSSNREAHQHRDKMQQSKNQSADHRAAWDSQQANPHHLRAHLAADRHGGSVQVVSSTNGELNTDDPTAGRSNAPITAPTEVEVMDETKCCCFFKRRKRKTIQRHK

[8] = molecular target: Mitogen-activated protein kinase kinase kinase kinase 5 (Homo sapiens) (UniProt Q9Y4K4); experiment: Selectivity interaction (ActivX KiNativ screen (ex vivo kinase selectivity in human PBMCs)) EUB0001619a MAP4K5; type: cell-based; conditions: PBMC, at 1 µM
Mitogen-activated protein kinase kinase kinase kinase 5 (Homo sapiens), sequence (Q9Y4K4 whole entry, looked up): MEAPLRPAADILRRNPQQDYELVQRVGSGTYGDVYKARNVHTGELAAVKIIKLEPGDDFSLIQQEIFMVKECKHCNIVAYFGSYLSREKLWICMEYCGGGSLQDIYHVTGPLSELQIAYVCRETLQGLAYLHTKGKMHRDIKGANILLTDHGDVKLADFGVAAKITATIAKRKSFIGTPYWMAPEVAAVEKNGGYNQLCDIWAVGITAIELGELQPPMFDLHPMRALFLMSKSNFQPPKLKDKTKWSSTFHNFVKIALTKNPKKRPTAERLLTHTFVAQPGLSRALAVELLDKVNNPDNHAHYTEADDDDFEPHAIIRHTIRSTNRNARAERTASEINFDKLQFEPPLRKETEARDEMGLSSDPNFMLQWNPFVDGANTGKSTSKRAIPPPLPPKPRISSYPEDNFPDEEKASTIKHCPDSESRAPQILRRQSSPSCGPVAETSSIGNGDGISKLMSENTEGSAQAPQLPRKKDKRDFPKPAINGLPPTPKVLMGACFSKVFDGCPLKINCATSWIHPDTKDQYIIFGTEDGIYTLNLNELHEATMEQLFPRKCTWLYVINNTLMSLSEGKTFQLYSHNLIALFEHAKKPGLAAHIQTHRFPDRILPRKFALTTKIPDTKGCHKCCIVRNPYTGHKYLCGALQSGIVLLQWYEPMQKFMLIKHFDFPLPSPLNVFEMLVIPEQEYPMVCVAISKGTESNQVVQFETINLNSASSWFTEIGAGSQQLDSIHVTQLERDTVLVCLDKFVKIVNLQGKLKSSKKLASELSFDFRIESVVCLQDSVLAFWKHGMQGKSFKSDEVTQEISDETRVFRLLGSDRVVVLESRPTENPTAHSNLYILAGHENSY

`CN(C(=O)c1cnn2cccnc12)c1cc2c(cc1N1CCOCC1)C(=O)N(C[C@@H](F)C(C)(C)O)C2` showed a dTM [1] of -0.3 K.

For `Nc1cnc(N2CCc3cc(S(=O)(=O)Nc4c(F)cc(Cl)cc4F)cc(N4CCCC4=O)c32)nc1` [TP-020n], the % of control [2] was 100% and the % of control [3] was 100%.

`O=C(NOC[C@H](O)CO)c1ccc(F)c(F)c1Nc1ccc(I)cc1F` was tested, and the % of control [4] was 100%.

Work on `Cn1cc(-n2cnc3c(NCc4nc5cc(Cl)c(Cl)cc5[nH]4)nc(N4CCOCC4)nc32)cn1` yielded a % of inhibition [5] of -42.4%.

With `Cc1cc(CN)cc(C)c1-c1ncn(C)c1-c1cncn1C` the dTM [6] was -1.06 K.

With `COCC(=O)NC/C=C/c1ccc2ncnc(Nc3ccc(Oc4ccc(C)nc4)c(C)c3)c2c1` [CP-724714] the % of control [7] was 100%.

Work on `N#Cc1cccc(-c2c[nH]c3ncnc(N4CCOCC4)c23)c1` yielded a % of inhibition [8] of 16%.
